Laboratory results reported in patent US20210238176A1, “PESTICIDALLY-ACTIVE BICYCLIC HETEROAROMATIC COMPOUNDS” (SYNGENTA CROP PROTECTION AG, priority 2018, published 2021).

Key:
Type in all cases: in vivo
[1] = tested on: Myzus persicae (Green Peach Aphid); experiment: Myzus persicae (green peach aphid) feeding/contact activity, sunflower leaf discs; details: foliar, 144 h, application rate 200 ppm, aphid population of mixed ages, 6 days after infestation
Procedure: Myzus persicae (Green Peach Aphid): Feeding/Contact Activity
Sunflower leaf discs were placed onto agar in a 24-well microtiter plate and sprayed with aqueous test solutions prepared from 10,000 ppm DMSO stock solutions. After drying, the leaf discs were infested with an aphid population of mixed ages. The samples were assessed for mortality 6 days after infestation.

[2] = tested on: Myzus persicae (Green Peach Aphid); experiment: Myzus persicae systemic activity, pea seedling roots in test solution; details: 144 h, test rate 24 ppm, systemic via pea seedling roots, 6 days
Procedure: Myzus persicae (Green Peach Aphid). Systemic Activity
Roots of pea seedlings infested with an aphid population of mixed ages were placed directly into aqueous test solutions prepared from 10,000 ppm DMSO stock solutions. The samples were assessed for mortality 6 days after placing seedlings into test solutions.

[3] = tested on: Myzus persicae (Green Peach Aphid); experiment: Myzus persicae intrinsic activity, sucrose solution under Parafilm; details: 120 h, test rate 12 ppm, 5 days after infestation
Description: Myzus persicae (Green Peach Aphid). Intrinsic Activity
Test compounds prepared from 10,000 ppm DMSO stock solutions were applied by pipette into 24-well microtiter plates and mixed with sucrose solution. The plates were closed with a stretched Parafilm. A plastic stencil with 24 holes was placed onto the plate and infested pea seedlings were placed directly on the Parafilm. The infested plate was closed with a gel blotting paper and another plastic stencil and then turned upside down. The samples were assessed for mortality 5 days after infestation.

[4] = tested on: neonicotinoid-resistant Myzus persicae; experiment: Myzus persicae (neonicotinoid-resistant) mixed population, contact/feeding, pepper plants; details: 120 h, neonicotinoid-resistant strain on pepper plants, 5 days after treatment, read-out: control (mortality)
Procedure: Myzus persicae (Neonicotinoid-Resistant, Green Peach Aphid), Mixed Population, Contact/Feeding.
Pepper plants were infested with mixed aged neonicotinoid-resistant aphid population and were treated 1 day after infestation with diluted test solutions in a spray chamber. 5 days after treatment, samples were assessed for mortality.

[5] = tested on: Bemisia tabaci (Cotton White Fly); experiment: Bemisia tabaci (cotton white fly) feeding/contact activity, cotton leaf discs; details: foliar, 144 h, application rate 200 ppm, adult white flies, 6 days after incubation
Procedure: Bemisia tabaci (Cotton White Fly): Feeding/Contact Activity
Cotton leaf discs were placed on agar in 24-well microtiter plates and sprayed with aqueous test solutions prepared from 10,000 ppm DMSO stock solutions. After drying the leaf discs were infested with adult white flies. The samples were checked for mortality 6 days after incubation.

[6] = tested on: Nilaparvata lugens (Brown Plant Hopper, metabolic neonicotinoid-resistant); experiment: Nilaparvata lugens (metabolic neonicotinoid-resistant) larvicide, feeding/contact, rice plants; details: 168 h, N3 nymphs, neonicotinoid-resistant strain, 7 days after treatment, read-out: control (mortality and growth regulation)
Procedure: Nilaparvata lugens (Brown Plant Hopper—Metabolic Neonicotinoid-Resistant), Larvicide, Feeding/Contact
Rice plants were treated with the diluted test solutions in a spray chamber. After drying, the plants were infested with ˜20 N3 nymphs. 7 days after the treatment, samples were assessed for mortality and growth regulation.

[7] = tested on: neonicotinoid-resistant Myzus persicae; experiment: Myzus persicae (neonicotinoid-resistant) mixed population, contact, pea seedlings; details: 120 h, neonicotinoid-resistant strain on pea seedlings, 5 days after treatment, read-out: control (mortality)
Procedure: Myzus persicae (Green Peach Aphid—Neonicotinoid-Resistant), Mixed Population, Contact
Pea seedlings infested with a mixed-aged neonicotinoid-resistant Myzus persicae population were treated with diluted test solutions in a spray chamber and checked for mortality 5 days after treatment.

[8] = tested on: neonicotinoid-resistant Bemisia tabaci; experiment: Bemisia tabaci (metabolic neonicotinoid-resistant) adult, cotton leaf discs; details: foliar, 96 h, 4 days after infestation, read-out: control (% adult mortality)
Procedure: Bemisia tabaci (Neonicotinoid-Resistant, Cotton Whitefly-Metabolic Neonicotinoid-Resistant), Adult.
5 cm cotton leaf discs were placed upside down in petri dishes poured out with 11 mL 0.8% water agar and applied in a turntable spraying chamber. After drying of the spray deposits, leaf discs were infested with 10 adult neonicotinoid-resistant Bemisia tabaci. Dishes were covered with a fabric filter and sealed with a perforated plastic lid. Evaluation was made 4 days after infestation on % adult mortality.

Cn1ccc(-n2c3cccn(Cc4ccc(Cl)nc4)c-3nc2=O)n1 [Compound A2, 4-[(6-chloro-3-pyridyl)methyl]-1-(1-methylpyrazol-3-yl)imidazo[4,5-b]pyridin-2-one]
≥ 80%: mortality at 200 ppm [1] | mortality at 24 ppm [2] | mortality at 12 ppm [3] | mortality at 200 ppm [4]

Cn1cc(-n2c3cccn(Cc4ccc(Cl)nc4)c-3nc2=O)cn1 [Compound A3, 4-[(6-chloro-3-pyridyl)methyl]-1-(1-methylpyrazol-4-yl)imidazo[4,5-b]pyridin-2-one]
≥ 80%: mortality at 200 ppm [5] | mortality at 200 ppm [1] | mortality at 24 ppm [2] | mortality at 12 ppm [3] | mortality at 200 ppm [6] | mortality at 200 ppm [4]

O=c1nc2n(Cc3ccc(Cl)nc3)cccc-2n1-c1cncc(F)c1 [Compound A26, 4-[(6-chloro-3-pyridyl)methyl]-1-(5-fluoro-3-pyridyl)imidazo[4,5-b]pyridin-2-one]
≥ 80%: mortality at 200 ppm [1] | mortality at 24 ppm [2] | mortality at 12 ppm [3] | mortality at 200 ppm [7]

Cc1ccc(-n2c3cccn(Cc4ccc(Cl)nc4)c-3nc2=O)cc1 [Compound A30, 4-[(6-chloro-3-pyridyl)methyl]-1-(p-tolyl)imidazo[4,5-b]pyridin-2-one]
≥ 80%: mortality at 200 ppm [1] | mortality at 12 ppm [3] | mortality at 200 ppm [7]

O=c1nc2n(Cc3ccc(Cl)nc3)cccc-2n1-c1cccc(F)c1 [Compound A31, 4-[(6-chloro-3-pyridyl)methyl]-1-(3-fluorophenyl)imidazo[4,5-b]pyridin-2-one]
≥ 80%: mortality at 24 ppm [2] | mortality at 12 ppm [3] | mortality at 200 ppm [6]

O=c1nc2n(Cc3ccc(Cl)nc3)cccc-2n1-c1cccnc1 [Compound A33, 4-[(6-chloro-3-pyridyl)methyl]-1-(3-pyridyl)imidazo[4,5-b]pyridin-2-one]
≥ 80%: mortality at 200 ppm [1] | mortality at 24 ppm [2] | mortality at 12 ppm [3] | mortality at 200 ppm [6]

O=c1nc2n(Cc3ccc(Cl)nc3)cccc-2n1-c1ccccc1 [Compound A34, 4-[(6-chloro-3-pyridyl)methyl]-1-phenyl-imidazo[4,5-b]pyridin-2-one]
≥ 80%: mortality at 200 ppm [1] | mortality at 24 ppm [2] | mortality at 12 ppm [3] | mortality at 200 ppm [6]

CCn1cc(-n2c3cccn(Cc4ccc(Cl)nc4)c-3nc2=O)cn1 [Compound A63, 4-[(6-chloro-3-pyridyl)methyl]-1-(1-ethylpyrazol-4-yl)imidazo[4,5-b]pyridin-2-one]
≥ 80%: mortality at 200 ppm [5] | mortality at 200 ppm [1] | mortality at 12 ppm [3] | mortality at 200 ppm [8] | mortality at 200 ppm [4]

O=c1nc2n(Cc3ccc(Cl)nc3)cccc-2n1-c1cnn(C(F)(F)F)c1 [Compound A80, 4-[(6-chloro-3-pyridyl)methyl]-1-[1-(trifluoromethyl)pyrazol-4-yl]imidazo[4,5-b]pyridin-2-one]
≥ 80%: mortality at 200 ppm [5] | mortality at 200 ppm [1] | mortality at 12 ppm [3] | mortality at 200 ppm [4]

Cc1c(-n2c3cccn(Cc4ccc(Cl)nc4)c-3nc2=O)cnn1C [Compound A92, 4-[(6-chloro-3-pyridyl)methyl]-1-(1,5-dimethylpyrazol-4-yl)imidazo[4,5-b]pyridin-2-one]
≥ 80%: mortality at 200 ppm [5] | mortality at 200 ppm [1] | mortality at 24 ppm [2] | mortality at 12 ppm [3] | mortality at 200 ppm [6] | mortality at 200 ppm [4]

O=c1nc2n(Cc3ccc(Cl)nc3)cccc-2n1-c1cnn(C2CC2)c1 [Compound A93, 4-[(6-chloro-3-pyridyl)methyl]-1-(1-cyclopropylpyrazol-4-yl)imidazo[4,5-b]pyridin-2-one]
≥ 80%: mortality at 200 ppm [5] | mortality at 200 ppm [1] | mortality at 24 ppm [2] | mortality at 12 ppm [3] | mortality at 200 ppm [6] | mortality at 200 ppm [4]

CCc1nn(C)cc1-n1c2cccn(Cc3ccc(Cl)nc3)c-2nc1=O [Compound A100, 4-[(6-chloro-3-pyridyl)methyl]-1-(3-ethyl-1-methyl-pyrazol-4-yl)imidazo[4,5-b]pyridin-2-one]
≥ 80%: mortality at 200 ppm [5] | mortality at 200 ppm [1] | mortality at 24 ppm [2] | mortality at 12 ppm [3]

Cc1nn(C(C)C)cc1-n1c2cccn(Cc3ccc(Cl)nc3)c-2nc1=O [Compound A102, 4-[(6-chloro-3-pyridyl)methyl]-1-(1-isopropyl-3-methyl-pyrazol-4-yl)imidazo[4,5-b]pyridin-2-one]
≥ 80%: mortality at 200 ppm [5] | mortality at 200 ppm [1] | mortality at 24 ppm [2] | mortality at 12 ppm [3]
